In patent publication US20210403415A1, “COMPOUNDS AND METHODS TO ATTENUATE TUMOR PROGRESSION AND METASTASIS” (THE TRUSTEES OF INDIANA UNIVERSITY, priority 2018, published 2021):

Columns and labels:
TEAD4.Yap1 interaction = TEAD4.Yap1 interaction (Homo sapiens, UniProt Q15561); experiment: Fluorescence polarization, GST-TEAD4 with FAM-Yap60-99 peptide; assay type: binding; parameters: TEAD4 (217-434), TEAD4 (217-434) Cys367Ser mutant and Yap1 (Full-length) were expressed as GST-fusion proteins; made in house; host or cells: E. coli BL-21 (DE3), pGEX-6P-1; settings: FP assay, 24 h at 4° C.
Sequence of TEAD4.Yap1 interaction (Q15561 217-434): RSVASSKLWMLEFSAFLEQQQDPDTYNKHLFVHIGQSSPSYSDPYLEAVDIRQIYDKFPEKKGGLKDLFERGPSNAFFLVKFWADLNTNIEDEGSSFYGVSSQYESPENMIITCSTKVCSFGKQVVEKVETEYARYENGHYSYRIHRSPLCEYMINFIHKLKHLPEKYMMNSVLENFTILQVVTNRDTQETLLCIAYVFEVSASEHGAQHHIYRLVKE
Description: (§1) GST-TEAD4, GST-TEAD4 Cys367Ser mutant or HIS-TEAD2 interaction with Yap1 was investigated using a fluorescently-labeled peptide (FAM-Yap60-99), consisting of FAM-labeled TEAD-binding peptide fragment of Yap1 (FAM-[…] TVPMCLRKLPASFCKPP), which has a disulfide bridge (American Peptide, Sunnyvale, Calif.). Addition of FAM-Yap60-99 to the TEAD was followed by measurement of changes in polarization. 40 μL of 125 nM GST-TEAD4 WT or GST-TEAD4 Cys367Ser in assay buffer (PBS with 0.01% v/v Triton-X100) or 40 μL of 64 nM HIS-TEAD2 was added to a 384-well black polystyrene plate (Cat. No. 262260; Nunc, Roskilde, Denmark) and incubated with 5 μL of […] serially diluted compounds in assay buffer supplemented with 20% v/v DMSO for 24 h at 4° C. Finally, 5 μL of 160 nM FAM-Yap60-99 peptide was added, the plate centrifuged, and the polarization was measured on an Envision Multilabel Plate Reader (PerkinElmer, Waltham, Mass.) using a filter set with excitation and emission wavelengths of 485 and 535 nm, respectively. Percent inhibition was calculated as relative to a minimum inhibition control, which is without compound, and a maximum inhibition control, which is without a TEAD.
For the determination of the inhibition efficiency kinact/K1, the protein compound incubation time was varied between […], prior to the addition of the FAM-Yap60-99 peptide and fluorescence polarization measurements. The progressive decrease in TEAD activities were plotted against time for all 10 concentrations ([…]) of the compounds and the observed rate of inhibition (kobs) was calculated by fitting a simple exponential function.
The observed rate of inhibition was then plotted against the concentration of the compound and a […] function kobs=kinact[Inhibitor]/K1+[Inhibitor] was fitted to determine the kinact and K1 values.

TEAD2 = TEAD2 (Homo sapiens, UniProt Q15562); settings: cited from earlier work
Sequence of TEAD2 (Q15562 whole entry): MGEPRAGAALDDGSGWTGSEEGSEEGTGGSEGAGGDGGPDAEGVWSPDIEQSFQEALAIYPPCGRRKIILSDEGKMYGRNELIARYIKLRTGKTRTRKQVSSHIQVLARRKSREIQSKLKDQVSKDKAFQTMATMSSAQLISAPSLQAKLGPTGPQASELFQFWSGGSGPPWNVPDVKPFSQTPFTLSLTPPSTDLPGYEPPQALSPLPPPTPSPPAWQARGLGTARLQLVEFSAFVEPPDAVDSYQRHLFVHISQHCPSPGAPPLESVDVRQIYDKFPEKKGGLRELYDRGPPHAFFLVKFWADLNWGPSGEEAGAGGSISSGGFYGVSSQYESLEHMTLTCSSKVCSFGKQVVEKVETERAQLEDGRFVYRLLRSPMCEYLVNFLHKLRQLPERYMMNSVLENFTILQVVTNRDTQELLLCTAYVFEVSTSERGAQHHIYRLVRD

TEAD2 binding to Yap1 = molecular target: T1, TEAD2 binding to Yap1 (Homo sapiens, UniProt Q15562); experiment: Fluorescence polarization, HIS-TEAD2 with FAM-Yap60-99 peptide; settings: 24 h at 4° C.
T1 construct: TEAD2 (217-447) was expressed as N-terminal HIS-fusion protein; made in house; host or cells: E. coli BL-21 (DE3), pET-28a
T1 sequence (Q15562 217-447): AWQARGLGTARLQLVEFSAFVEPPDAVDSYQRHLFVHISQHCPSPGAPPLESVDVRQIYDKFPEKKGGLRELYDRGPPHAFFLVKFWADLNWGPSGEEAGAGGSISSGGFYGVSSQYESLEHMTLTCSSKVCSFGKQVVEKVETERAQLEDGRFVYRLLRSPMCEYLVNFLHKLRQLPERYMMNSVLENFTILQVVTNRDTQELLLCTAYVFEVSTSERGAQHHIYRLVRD
Description: as §1

CTGF transcript levels = experiment: qRT-PCR of CTGF transcript in GBM43 cells; assay type: cell-based, human; settings: FIG. 8C
[1] = system: patient-derived GBM43 glioblastoma spheroids; experiment: GBM43 spheroid viability (Alamar blue); assay type: cell-based, human; settings: three-dimensional spheroids
Description: Early-passage GBM43 cells were cultured in ultralow adherence plates (Corning Inc.) at 1 to 2×10^3 cells/mL in DMEM supplemented with 1% […] (Invitrogen), 2% B27 (Invitrogen), 25 ng/mL epidermal growth factor (EGF, 25 ng/mL fibroblast growth factor (FGF) (R&D Systems, Inc.), […], 2 ng/mL platelet growth factor, and 100 ng/mL each of penicillin and streptomycin (Invitrogen Inc.). Individual cells were recovered from spheres by incubation with Accutase (Sigma-Aldrich) for 10-15 minutes. Cells (50-100/well) were then seeded in fresh sphere-forming media in 96-well plates. After 2-3 days, Neurospheres containing 6 to 8 cells were treated with compounds 1, 2, and 5.
HEK-293 were cultured in DMEM with glutamine (Cellgro, Manassas, Va.) supplemented with 10% FBS and 1% penicillin/streptomycin in a 5% CO2 atmosphere at 37° C. Tumors were expanded by passage in the flank of NOD/SCIDγnull mice. To generate GBM43 cell lines, tumors were harvested, disaggregated, and maintained in 2.5% FBS for 14 days on Matrigel-coated plates (BD Biosciences) to remove murine fibroblasts. In-vitro GBM43 cell lines were propagated in DMEM with 10% FBS for no more than 7 passages. Cell line identity was confirmed by DNA fingerprint analysis (IDEXX BioResearch) for species and baseline short-tandem repeat analysis testing. GBM43 spheroids were generated by plating early-passage cells at 2.5×10^4 cells per well in 96-well ultralow attachment plates (Corning Inc.) in DMEM/F12 (1:1; GIBCO) supplemented with 2% B27 supplement (GIBCO), 20 ng/mL epidermal growth factor (EGF), and 20 ng/mL fibroblast growth factor (FGF) (Peprotech) for 2 days. The spheroids were then treated with compounds 1, 2, and 5 and growth analyzed by Alamar blue staining.

TEAD4 = TEAD4 (Homo sapiens, UniProt Q15561); experiment: Whole protein ESI mass spectrometry, adduct formation; assay type: binding; parameters: TEAD4 (217-434), TEAD4 (217-434) Cys367Ser mutant and Yap1 (Full-length) were expressed as GST-fusion proteins; GST (N, cleaved yes); made in house; host or cells: E. coli BL-21 (DE3), pGEX-6P-1; settings: 10 μM TEAD4, 200 μM compound, 24 h at 4° C.
Sequence of TEAD4 (Q15561 217-434): as the sequence (Q15561 217-434) above
Description: The samples were centrifuged at 20,000×g for […] to remove precipitants before being injected into an empty column on an Agilent 1200 liquid chromatography system (Agilent, Santa Clara, Calif.), using 80% Buffer A (H2O, 5 mM NH4OAc) and 20% Buffer B (ACN, 5 mM NH4OAc), and the masses were detected on an Agilent 6520 Accurate Mass Q-TOF.
It was determined whether a covalent bond formed between inventive compounds and TEAD4. […] The covalent adduct formation by compound 2 was relatively fast (FIG. 3G), reaching nearly 100% adduct formation after 30 min incubation with TEAD4. Because the rate of inhibition developed over a longer timescale (FIG. 3C), compound 2 is proposed to induce a slow conformational change in TEAD4 that prevents its interaction with Yap1. To rule out the possibility that compound 2 induces slow aggregation of TEAD4, and not the proposed slow conformational change, GST-TEAD4 was incubated with DMSO compound 2 for 24 h at 4° C., followed by injection into an SEC column (FIG. 3H). […] A slight increase in dimer formation for the TEAD4 sample incubated with compound 2 occurred compared to the sample incubated with DMSO. […] Furthermore, it is highly unlikely that Cys-367 oxidation was responsible for the lack of 100% inhibition at longer times since it has been shown that covalent bond formation is rapid and complete within less than an hour.

[2] = molecular target: uPAR.uPA protein-protein interaction (Homo sapiens, UniProt Q03405); experiment: Fluorescence polarization, urokinase receptor with peptide AE147; assay type: binding; settings: 24 h at 4° C.
Sequence of uPAR.uPA protein-protein interaction (Q03405 23-305 limits assumed): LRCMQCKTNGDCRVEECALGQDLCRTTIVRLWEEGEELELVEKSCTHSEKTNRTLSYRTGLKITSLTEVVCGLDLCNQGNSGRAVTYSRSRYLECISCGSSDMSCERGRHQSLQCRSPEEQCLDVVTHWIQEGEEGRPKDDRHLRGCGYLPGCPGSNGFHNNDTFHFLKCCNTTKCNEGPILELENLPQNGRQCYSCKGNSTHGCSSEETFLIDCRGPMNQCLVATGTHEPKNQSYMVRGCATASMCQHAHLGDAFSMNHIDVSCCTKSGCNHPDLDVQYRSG
Excerpt: (§2) The selectivity of the compounds was explored with two unrelated protein-protein interactions between (i) the urokinase receptor (uPAR) and its ligand urokinase (uPA); and (ii) the a subunit of the voltage-gated calcium channel Cav2.2 with its β subunit Cavβ3. […] Both proteins have cysteine residues capable of forming covalent adducts.
(§3) FIG. 4D illustrates BLI measurements of the binding of TEAD4 to captured Yap when biotin-labeled GST-Yap1 was captured onto streptavidin-conjugated biolayer interferometry sensors which were dipped into varying concentrations of TEAD4. (mean±s.d.; n=3). […] FIG. 4F illustrates measured fluorescence polarization when increasing concentration of HIS-TEAD2 was mixed with 16 nM FAM-Yap60-99 peptide (mean±s.d.; n=3). FIG. 4G illustrates measured fluorescence polarization when HIS-TEAD2 was incubated with increasing concentration of compounds for 24 h at 4° C. followed by addition of FAM-Yap60-99 (mean±s.d.; n=3). FIG. 4H illustrates measured fluorescence polarization when urokinase receptor (uPAR) was incubated with varying concentrations of compounds for 24 h at 4° C. followed by addition of a urokinase-derived fluorescently-labeled peptide AE147 (mean±s.d.; n=3). […]

[3] = molecular target: Cav2.2 α·β protein-protein interaction (Homo sapiens, UniProt P54284); experiment: Fluorescence polarization, Cavβ3 with labeled α-subunit peptide; assay type: binding; settings: 24 h at 4° C.
Sequence of Cav2.2 α·β protein-protein interaction (P54284 whole entry): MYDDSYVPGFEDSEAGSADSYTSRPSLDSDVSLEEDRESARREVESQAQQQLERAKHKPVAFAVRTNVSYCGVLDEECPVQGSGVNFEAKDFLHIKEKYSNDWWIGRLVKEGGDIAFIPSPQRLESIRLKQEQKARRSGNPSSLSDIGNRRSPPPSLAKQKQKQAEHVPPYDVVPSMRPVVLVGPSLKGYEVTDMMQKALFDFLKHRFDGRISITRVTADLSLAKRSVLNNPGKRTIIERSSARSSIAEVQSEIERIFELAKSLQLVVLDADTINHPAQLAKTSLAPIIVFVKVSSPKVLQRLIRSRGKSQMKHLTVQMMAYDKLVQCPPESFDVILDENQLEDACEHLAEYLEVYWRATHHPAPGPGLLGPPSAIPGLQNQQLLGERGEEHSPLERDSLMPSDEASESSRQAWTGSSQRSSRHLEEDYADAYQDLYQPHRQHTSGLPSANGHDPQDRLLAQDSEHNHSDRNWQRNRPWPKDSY
Excerpt: as §2, §3

| inhibition of TEAD4.Yap1 interaction (TEAD4.Yap1 interaction) | inhibition of TEAD2 binding to Yap1 (TEAD2 binding to Yap1) | covalent adduct formation with TEAD4 (TEAD4) | inhibition of uPAR.uPA interaction [2] | inhibition of Cav2.2 α·β interaction [3] | Compound | inhibition of TEAD binding to Yap (TEAD2) | binding to TEAD2 (TEAD2; two sites on TEAD2) | CTGF transcript levels versus vehicle (CTGF transcript levels) | effect on GBM43 cancer cell viability / growth [1] |
| --- | --- | --- | --- | --- | --- | --- | --- | --- | --- |
| did not inhibit | inactive |  |  |  | O=C(O)c1ccccc1Nc1cccc(C(F)(F)F)c1 [Compound 1, 2-((3-(trifluoromethyl)phenyl)amino)benzoic acid, reference compound] | did not inhibit | binds weakly | no effect | did not affect |
| did not inhibit | inactive | no adduct formation | no inhibition | no inhibition | CCC(=O)c1ccccc1Nc1cccc(C(F)(F)F)c1 [Compound 3, 1-(2-((3-(trifluoromethyl)phenyl)amino)phenyl)propan-1-one] |  |  |  |  |
